Measurements as given in patent US12662707B2, “MYC amplification drives resistance to pan-RAS inhibitors in pancreatic cancer” (The Trustees of Columbia University in the City of New York, priority 2024, dated 2026).

Legend:
CC3+ apoptotic cells = assay: CC3 IHC in Capan-1 xenograft model (tumor, colon, skin); assay type: in vivo, mouse
Protocol: Studies were terminated early if tumor burden reached humane endpoint. Body weights were collected twice a week during the study. Means±s.e.m were plotted in the waterfall plots. For the single-dose pharmacokinetic/pharmacodynamic (PK/PD) study, mice were randomized and assigned into groups (n=3-6/dose/timepoint). […] Sakura, 4583) solution or snap-frozen in LN2 for further analysis. Whole blood was transferred into K2EDTA Microtainer tubes (BD, 365974), incubated for 5 minutes and snap-frozen in LN2. To stain tissues collected from the Capan-1 xenograft model, a similar protocol was used with the following changes. Sections were stained using a Leica BOND automated staining system and primary antibodies were detected with the Leica BOND Polymer detection kit (3-P—PV6119). Stained slides were scanned and digitized with a 3DHistotech Pannoramic whole slide scanner at 20× magnification. Image analysis was performed using HALO software from Indica Labs.

[1] = RMC-7977 levels in KPCY allograft tumor tissue; assay type: in vivo; conditions: C57Bl/6, mouse, oral, 10 mg/kg
Protocol: Body weights were measured twice a week during the study. Tissue was harvested either at 4 hours or 24 hours after last dose and preserved as previously described (See Xenograft studies section). Whole blood, tumor, colon and skin tissue concentrations of RMC-7977 were determined using liquid chromatography-tandem mass spectrometry (LC-MS/MS) methods. […] After thorough mixing and centrifugation, the supernatant was directly analyzed on a Sciex 6500+ triple quadrupole mass spectrometer equipped with an ACQUITY or Shimadzu UPLC system. An ACQUITY UPLC BEH C18 or C4 […] (2.1×50 mm) column was used with gradient elution for compound separation. RMC-7977 and IS (verapamil or terfenadine) were detected by positive electrospray ionization using multiple reaction monitoring (RMC-7977: m/z 865.4/706.4 or m/z 865.3/833.5; verapamil: m/z 455.2/164.9; terfenadine: m/z 472.3/436.4). […] BA analysis on blood and tissue samples from xenograft models was run at Wuxi AppTec. BA analysis on blood and tissue samples from allograft models and GEMM was run at Revolution Medicines.

[2] = tested on: RAS/MAPK pathway (pERK) in murine PDAC cell lines; assay: Western blot of pERK, murine PDAC cell lines; assay type: cell-based; conditions: 1-100 nM, 2 hours
Protocol: (§1) Cells were seeded at 7.5×10^5-4×10^6 cells per well in 6-well plates or 100 mm dishes in growth medium. After overnight incubation, indicated compound (RMC-7977, IAG933 or DMSO (0.1% v/v)) were added and incubated for the indicated time points. Cells were washed twice with ice-cold PBS and lysed with NP-40 lysis buffer (Thermo Fisher Scientific, J60766), MSD Tris Lysis Buffer (MSD, R60TX-2), RIPA buffer (50 mM TRIS-HCl, pH 7.5, 150 mM NaCl, 1% NP-40, 0.5% sodium deoxycholate, 0.1% SDS) or a lysis buffer containing 1% Triton X-100, 20 mM Tris-HCl, 150 mM NaCl, and 1 mM EDTA. All lysis buffers were supplemented with protease and phosphatase inhibitors. Lysates were scraped and collected before centrifugation at 21,000×g for 10 minutes at 4° C. The protein-containing supernatants were quantified by BCA assay (Pierce, 23225) and equal quantities of protein were denatured with LDS and reducing agent at 95° C. Samples were resolved on 12% or 4-12% Bis-Tris polyacrylamide gels, then transferred to a nitrocellulose or PVDF membrane using the iBlot 2.0 system or wet transfer. Membranes were blocked in Intercept TBS buffer (LiCor, 927-60001) or 3-5% milk before probing with primary antibodies overnight at 4° C. Secondary antibodies were added as appropriate, and the membranes were imaged on a LiCor Odyssey imager. […]

murine PDAC cell lines = assay: Murine cell viability assay; assay type: cell-based; conditions: most murine PDAC cell lines; 72 hours
Protocol: PDAC murine cell lines harboring KrasG12D or KrasG12C mutations were seeded at 2×10^3 in a 96-well plate. Cells were treated 24 hours later with DMSO or serial dilutions of RMC-7977. Cell viability was evaluated 72 hours later by measuring adenosine triphosphate (ATP) levels using the CellTiter-Glo® Luminescent Cell Viability Assay (Promega, G7572) according to the manufacturer's instructions. For experiments comparing naive and resistant cell lines, live cells were fluorescently labelled using Calcein AM (20-minute incubation at 500 nM, Thermo Fisher) and counted using the SpectraMax i3X multimode detection platform (Molecular Devices). Technical triplicates were run for each biological replicate and a total of 3-4 biological replicates was done for each cell line. Growth percentage was calculated by normalizing drug-treated values to DMSO control, which was set to 100%. Four-parameter drug response curves were generated from 3+ biological replicates in GraphPad Prism. Mean±s.d. was plotted for each tested dilution.

[3] = tested on: autochthonous KPC pancreatic tumors; conditions: 50 mg/kg q.o.d.
Protocol: For survival study, KPC mice with 4-7 mm diameter tumors (as measured by ultrasound) were enrolled and treated every other day with Vehicle (n=9) or RMC-7977 (50 mg/kg; n=13). Animal health status and weight were checked daily and ultrasounds were performed every third day to monitor tumor growth. The survival end point was determined by overall health criteria scoring, where end point is determined by a score of 5 or greater based on the following criteria: • Moribund—immediate euthanasia • Abdominal distention due to hemorrhagic ascites—5 pts • Mild difficulty beathing—5 pts • Hypothermia—5 pts • Abdominal distention due to chylous ascites—3 pts • Loss of over 20% enrollment body weight—3 pts • Failure of grasp test—3 pts Jaundice or pallor—3 pts • Weak grasp test—2 pts • Failure to interact with other mice—1 pt • Hunched—1 pt • Pilorection/failure to groom—1 pt
Additional notes were made to better characterize the cause of death upon necropsy, including the presence of macro liver and/or lung metastases, jaundice, and tumor-mediated GI obstructions. Survival is denoted as Kaplan-Meier survival curves compared with a log-rank, Mantel-Cox test. Mice that reached endpoint criteria were sacrificed either at 4 or 24 hours after last dose in a manner consistent with IACUC standards and our own criteria scoring. Tissue was collected at time of necropsy for further analysis.

Myc protein levels = assay: Western blot of Myc in resistant and naive KPC cell lines; assay type: cell-based, murine; conditions: 100 nM, 24 hours
Protocol: as §1

[4] = tested on: RAS/MAPK pathway (pERK, pAKT, pS6, c-PARP) in human PDAC cell lines; assay: Western blot of RAS pathway signaling, human PDAC cell lines; assay type: cell-based
Protocol: Cells were seeded at 7.5×10^5-4×10^6 cells per well in 6-well plates or 100 mm dishes in growth medium. After overnight incubation, indicated compound (RMC-7977, IAG933 or DMSO (0.1% v/v)) were added and incubated for the indicated time points. Cells were washed twice with ice-cold PBS and lysed with NP-40 lysis buffer (Thermo Fisher Scientific, J60766), MSD Tris Lysis Buffer (MSD, R60TX-2), RIPA buffer (50 mM TRIS-HCl, pH 7.5, 150 mM NaCl, 1% NP-40, 0.5% sodium deoxycholate, 0.1% SDS) or a lysis buffer containing 1% Triton X-100, 20 mM Tris-HCl, 150 mM NaCl, and 1 mM EDTA. All lysis buffers were supplemented with protease and phosphatase inhibitors. Lysates were scraped and collected before centrifugation at 21,000×g for 10 minutes at 4° C. The protein-containing supernatants were quantified by BCA assay (Pierce, 23225) and equal quantities of protein were denatured with LDS and reducing agent at 95° C. Samples were resolved on 12% or 4-12% Bis-Tris polyacrylamide gels, then transferred to a nitrocellulose or PVDF membrane using the iBlot 2.0 system or wet transfer. Membranes were blocked in Intercept TBS buffer (LiCor, 927-60001) or 3-5% milk before probing with primary antibodies overnight at 4° C. Secondary antibodies were added as appropriate, and the membranes were imaged on a LiCor Odyssey imager. Alternatively, membranes were incubated with HRP-linked secondary antibodies and developed with Clarity or ClarityMax chemiluminescent substrates using a ChemiDoc XRS+ or ChemiDoc™ MP imager (Bio-Rad).

## CCn1c(-c2cc(N3CCN(C4CC4)CC3)cnc2[C@H](C)OC)c2c3cc(ccc31)-c1csc(n1)C[C@H](NC(=O)[C@H]1[C@@H]3COC[C@@H]31)C(=O)N1CCC[C@H](N1)C(=O)OCC(C)(C)C2 [RMC-7977]
CC3+ apoptotic cells; Capan-1 CDX tumors
  time of peak of CC3+ apoptotic cells post-dose: 8 h
CC3+ apoptotic cells; Capan-1 CDX tumors, single dose
  CC3+ apoptotic cells in tumors relative to vehicle: notable increase
CC3+ apoptotic cells; tumor-bearing animals, any timepoint
  apoptotic cells in colon or skin: few apoptotic cells
[1]
  half-life: 3.5 h
[2]
  phosphorylation of ERK1/2 (pERK): reduced phosphorylation
Murine PDAC cell lines
  potency in concentration-response cell viability assays: low nanomolar potency
[3]
  body weights compared with control KPC mice: similar
  tumor response by 3D-ultrasound: tumor stabilizations or regressions
[3]; KPC mice
  increase in median survival compared to controls: 3.5 fold
Myc protein levels; two RMC-7977 Naive lines
  Myc protein levels: fully inhibited
Myc protein levels; two Resistant lines
  Myc protein levels: incompletely reduced
[4]; human PDAC cell lines, 1-100 nM
  phosphorylation of ERK1/2 (pERK): reduced phosphorylation
[4]; human cell lines
  inhibition of PI3K effector signaling (pAKT, pS6S235/S236): more variable inhibition
[4]; human cell lines, 100 nM
  duration of inhibition of pERK: 48 hours
[4]; human cell lines, later timepoints
  apoptotic marker cleaved PARP (c-PARP): induction
